Results from patent US10745741B2, “Cell barcoding in microfluidics” (EUROPEAN MOLECULAR BIOLOGY LABORATORY, priority 2015, dated 2020).

Assays:
[1] = tested on: p21; experiment: p21 expression by qPCR on barcoded mRNA from drug-treated MCF-7 cells in droplets; type: cell-based; details: 12 h at 37° C., barcode 2B, qPCR (FIG. 8A)
Excerpt: (§1) Barcoding cellular mRNA according to particular drug treatments. The combinatorial microfluidic chip was used to generate droplets containing the following components: • MCF-7 cells+media+ligation mix+barcode fragment BC-1+barcode fragment BC-A+Thiostrepton • MCF-7 cells+media+ligation mix+barcode fragment BC-2+barcode fragment BC-B+Doxorubicin treated cells • MCF-7 cells+media+ligation mix+barcode fragment BC-1+barcode fragment BC-B The resulting emulsions were collected separately in droplet traps (as shown in Hu H et al., Lab Chip 2015) for 12 h at 37° C., before cell lysis was achieved by repeated freezing and thawing. Then the emulsion was broken and hybridized cellular mRNA was purified using streptaviding-coated beads. This step ensures that only mRNA hybridized to ligated barcode combinations (e.g. 1A for the Thiostrepton sample) is isolated. Subsequently reverse transcription was carried out and the abundance of target genes was assessed by qPCR using primers specific for the target genes. Barcode fragment combination is shown exemplary for fragments BC-A and BC-1 in FIG. 7, as well as the reverse transcription and qPCR using the barcode. Expression levels of p21 (FIG. 8A) and FoxM1 (FIG. 8B) were normalized to Actb expression and the fold change in expression was determined between treated and untreated cells.

[2] = tested on: FoxM1; experiment: FoxM1 expression by qPCR on barcoded mRNA from drug-treated MCF-7 cells in droplets; type: cell-based; details: 12 h at 37° C., barcode combination 1A, qPCR (FIG. 8B)
Excerpt: as §1

SMILES | p21 expression normalized to Actb expression, fold change between treated and untreated cells [1] | FoxM1 expression normalized to Actb expression, fold change between treated and untreated cells [2]
COc1cccc2c1C(=O)c1c(O)c3c(c(O)c1C2=O)C[C@@](O)(C(=O)CO)C[C@@H]3O[C@H]1C[C@H](N)[C@H](O)[C@H](C)O1 [Doxorubicin] | significant upregulation | 
C=C(NC(=O)C(=C)NC(=O)c1csc(C2=N[C@@H]3c4csc(n4)[C@H]4NC(=O)c5csc(n5)[C@H]([C@](C)(O)[C@@H](C)O)NC(=O)[C@H]5CSC(=N5)/C(=C/C)NC(=O)[C@H]([C@@H](C)O)NC(=O)c5csc(n5)[C@]3(CC2)NC(=O)[C@H](C)NC(=O)C(=C)NC(=O)[C@H](C)NC(=O)[C@H]([C@@H](C)CC)N[C@@H]2C=Cc3c([C@H](C)O)cc(nc3[C@H]2O)C(=O)O[C@@H]4C)n1)C(N)=O [Thiostrepton] |  | significant downregulation
